# Where two headings read alike, the source gives them in different places.
# Assay: Toxicokinetic evaluation of 14-day repeated intragastric administration to SD rats
# Type: in vivo
# Conditions: both sexes, SD, rat, plasma, po; for Vd/F at 7 day: Day 7, read-out: Apparent volume of distribution Vz/F; for CL/F at 7 day: Day 7, read-out: Clearance CL/F; for half-life at 7 day: Day 7, read-out: Half-life T1/2 (converted); for MRT at 7 day: Day 7, read-out: Residence time MRT; for Vd/F at 14 day: Day 14, read-out: Apparent volume of distribution Vz/F; for CL/F at 14 day: Day 14, read-out: Clearance CL/F; for half-life at 14 day: Day 14, read-out: Half-life T1/2 (converted); for Cmax at 14 day: Day 14, read-out: Plasma concentration Cmax; for MRT at 14 day: Day 14, read-out: Residence time MRT
# Procedure: With SD rats as test animals, the plasma concentrations of the test compounds and the concentrations of the original forms of the compounds in the administration solutions were measured by LC/MS/MS at different time points after intragastric administration. The toxicokinetic performance of the compound disclosed herein was studied in SD rats and its toxicokinetic profile was evaluated.
# 24 SD rats, an equal number of males and females, evenly divided into 6 groups of 4, an equal number of males and females in each group, provided by Vital River Laboratory Animal Technology Co., Ltd.
# A certain amount of the compound of Example 16 was measured out, and 15% PEG400 and 85% (10% TPGS+1% HPMC K100LV) were added to prepare a pale yellow homogenous suspension.
# A certain amount of compound MYK-461 was measured out, and 0.5% MC was added to prepare a colorless clear solution.
# The compound of Example 16 was intragastrically administered at doses of 5 mg/kg, 15 mg/kg and 30 mg/kg, at a volume of 10 mL/kg.
# Compound MYK-461 was administered at doses of 0.5 mg/kg, 1.5 mg/kg and 3 mg/kg, at a volume of 10 mL/kg.
# 0.2-mL blood samples were collected from the orbit 0.5 h, 1.0 h, 2.0 h, 4.0 h, 8.0 h and 24.0 h after administration on day 1, and before administration and 0.5 h, 1.0 h, 2.0 h, 4.0 h, 8.0 hi, 24.0 h after administration on day 7 and day 14, placed into EDTA-K2 anticoagulation tubes, and centrifuged at 10,000 rpm for 1 min (4° C.), and plasma was isolated within 1 h and stored at −20° C. before analysis. The blood collection to centrifugation process was performed under ice bath conditions. Two hours after administration, feeding was resumed.
# Determination of plasma concentrations in SD rats after intragastric administration of different concentrations of test compounds: 20 μL of SD rat plasma at each time point post-dose was mixed with 50 μL of an internal standard solution (internal standard for the compound of Example 16: 100 ng/mL verapamil; internal standard for compound MYK-461: 100 ng(mL camptothecin) and 200 μL of acetonitrile; the mixture was vortexed for 5 min and centrifuged at 3700 rpm for 10 min, and 1 μL of the supernatant was taken for LC/MS/MS analysis.
# [1] = 0.5 mg/kg, repeated intragastric 0.5 mg/kg
# [2] = 1.5 mg/kg, repeated intragastric 1.5 mg/kg
# [3] = 3 mg/kg, repeated intragastric 3.0 mg/kg
smiles,measurement,setting,value
"CC(C)n1c(=O)cc(N[C@@H](C)c2ccccc2)[nH]c1=O [MYK-461, reference compound]",Vd/F,"0.5 mg/kg, repeated intragastric 0.5 mg/kg, Day 1, read-out: Apparent volume of distribution Vz/F",13.8 L/kg
same,AUC,"0.5 mg/kg, repeated intragastric 0.5 mg/kg, Day 1, read-out: Area under curve AUC",491 ng·h/mL
same,CL/F,"0.5 mg/kg, repeated intragastric 0.5 mg/kg, Day 1, read-out: Clearance CL/F",12.9 mL/min/kg
same,half-life,"0.5 mg/kg, repeated intragastric 0.5 mg/kg, Day 1, read-out: Half-life T1/2 (converted)",13.3 h
same,Cmax,"0.5 mg/kg, repeated intragastric 0.5 mg/kg, Day 1, read-out: Plasma concentration Cmax",40.2 ng/mL
same,MRT,"0.5 mg/kg, repeated intragastric 0.5 mg/kg, Day 1, read-out: Residence time MRT",19 h
same,Vd/F at 7 day,[1],8.41 L/kg
same,AUC,"0.5 mg/kg, repeated intragastric 0.5 mg/kg, Day 7, read-out: Area under curve AUC",888 ng·h/mL
same,CL/F at 7 day,[1],7.46 mL/min/kg
same,half-life at 7 day,[1],14.7 h
same,Cmax,"0.5 mg/kg, repeated intragastric 0.5 mg/kg, Day 7, read-out: Plasma concentration Cmax",51.7 ng/mL
same,MRT at 7 day,[1],21.3 h
same,Vd/F at 14 day,[1],5.86 L/kg
same,AUC,"0.5 mg/kg, repeated intragastric 0.5 mg/kg, Day 14, read-out: Area under curve AUC",1560 ng·h/mL
same,CL/F at 14 day,[1],3.06 mL/min/kg
same,half-life at 14 day,[1],32.9 h
same,Cmax at 14 day,[1],89.3 ng/mL
same,MRT at 14 day,[1],47.3 h
same,Vd/F at 1 day,"1.5 mg/kg, repeated intragastric 1.5 mg/kg, Day 1, read-out: Apparent volume of distribution Vz/F",9.56 L/kg
same,AUC,"1.5 mg/kg, repeated intragastric 1.5 mg/kg, Day 1, read-out: Area under curve AUC",2580 ng·h/mL
same,CL/F at 1 day,"1.5 mg/kg, repeated intragastric 1.5 mg/kg, Day 1, read-out: Clearance CL/F",6.39 mL/min/kg
same,half-life at 1 day,"1.5 mg/kg, repeated intragastric 1.5 mg/kg, Day 1, read-out: Half-life T1/2 (converted)",19.1 h
same,Cmax at 1 day,"1.5 mg/kg, repeated intragastric 1.5 mg/kg, Day 1, read-out: Plasma concentration Cmax",140 ng/mL
same,MRT at 1 day,"1.5 mg/kg, repeated intragastric 1.5 mg/kg, Day 1, read-out: Residence time MRT",28.2 h
same,Vd/F at 7 day,[2],4.8 L/kg
same,AUC,"1.5 mg/kg, repeated intragastric 1.5 mg/kg, Day 7, read-out: Area under curve AUC",5180 ng·h/mL
same,CL/F at 7 day,[2],3.58 mL/min/kg
same,half-life at 7 day,[2],20.5 h
same,Cmax at 7 day,"1.5 mg/kg, repeated intragastric 1.5 mg/kg, Day 7, read-out: Plasma concentration Cmax",269 ng/mL
same,MRT at 7 day,[2],30.2 h
same,Vd/F at 14 day,[2],5.03 L/kg
same,AUC,"1.5 mg/kg, repeated intragastric 1.5 mg/kg, Day 14, read-out: Area under curve AUC",6320 ng·h/mL
same,CL/F at 14 day,[2],2.57 mL/min/kg
same,half-life at 14 day,[2],26.2 h
same,Cmax at 14 day,[2],333 ng/mL
same,MRT at 14 day,[2],38.5 h
same,Vd/F at 1 day,"3 mg/kg, repeated intragastric 3.0 mg/kg, Day 1, read-out: Apparent volume of distribution Vz/F",8.93 L/kg
same,AUC,"3 mg/kg, repeated intragastric 3.0 mg/kg, Day 1, read-out: Area under curve AUC",5210 ng·h/mL
same,CL/F at 1 day,"3 mg/kg, repeated intragastric 3.0 mg/kg, Day 1, read-out: Clearance CL/F",4.91 mL/min/kg
same,half-life at 1 day,"3 mg/kg, repeated intragastric 3.0 mg/kg, Day 1, read-out: Half-life T1/2 (converted)",28.5 h
same,Cmax at 1 day,"3 mg/kg, repeated intragastric 3.0 mg/kg, Day 1, read-out: Plasma concentration Cmax",297 ng/mL
same,MRT at 1 day,"3 mg/kg, repeated intragastric 3.0 mg/kg, Day 1, read-out: Residence time MRT",43.1 h
same,Vd/F at 7 day,[3],4.36 L/kg
same,AUC,"3 mg/kg, repeated intragastric 3.0 mg/kg, Day 7, read-out: Area under curve AUC",12500 ng·h/mL
same,CL/F at 7 day,[3],1.97 mL/min/kg
same,half-life at 7 day,[3],190 h
same,Cmax at 7 day,"3 mg/kg, repeated intragastric 3.0 mg/kg, Day 7, read-out: Plasma concentration Cmax",628 ng/mL
same,MRT at 7 day,[3],275 h
same,Vd/F at 14 day,[3],3.8 L/kg
same,AUC,"3 mg/kg, repeated intragastric 3.0 mg/kg, Day 14, read-out: Area under curve AUC",16000 ng·h/mL
same,CL/F at 14 day,[3],1.3 mL/min/kg
same,half-life at 14 day,[3],46.5 h
same,Cmax at 14 day,[3],767 ng/mL
same,MRT at 14 day,[3],68.1 h

# Reference: patent US20240010639A1, “TRIAZINE DIONE DERIVATIVE, PREPARATION METHOD THEREFOR AND APPLICATION THEREOF IN MEDICINE” (Jiangsu Hengrui Pharmaceuticals Co., Ltd., priority 2020, published 2024)
